The values below are quoted from earlier work in EP3332769A1, “SOLID ORAL PHARMACEUTICAL COMPOSITIONS OF TICAGRELOR” (Sanovel Ilac Sanayi ve Ticaret A.S., priority 2016, dated 2018).

A word on the aqueous solubility: it is how much of the substance goes into solution per volume.

For the data set the following is noted: in water.

Converted amounts (≈) assume the structure as drawn.

With `CCCSc1nc(N[C@@H]2C[C@H]2c2ccc(F)c(F)c2)c2nnn([C@@H]3C[C@H](OCCO)[C@@H](O)[C@H]3O)c2n1` [Ticagrelor, (1 S,2S,3R,5S)-3-[7-[(1 R,2S)-2-(3,4-Difluorophenyl)cyclopropylamino]-5-(propylthio)-3H-[1,2,3]triazolo[4,5-d]pyrimidin-3-yl] -5-(2-hydroxyethoxy) cyclopentane-1,2-diol], the aqueous solubility is given as 10 µg/mL (≈ 19.1 µM).
